This is an account of results in US10377719B2, “Trypanosomes inhibitors” (Hoffmann-La Roche Inc., priority 2015, dated 2019).

In this test the test system is Trypanosoma brucei rhodesiense STIB900. Kind of test: Activity against Trypanosoma brucei rhodesiense STIB900 (Alamar Blue assay). As to conditions: Trypanosoma brucei, 70 h, bloodstream forms of T. b. rhodesiense STIB 900, 70 h incubation. It is filed as cell-based. As for the experimental part: Activity Against Trypanosoma brucei Rhodesiense STIB900
This stock was isolated in 1982 from a human patient in Tanzania and after several mouse passages cloned and adapted to axenic culture conditions (Baltz, T., D. Baltz, C. Giroud, and J. Crockett. 1985, Cultivation in a semi-defined medium of animal infective forms of Trypanosoma brucei, T. equiperdum, T. evansi, T. rhodesiense and T. gambiense. EMBO Journal 4:1273-1277). Minimum Essential Medium (50 μl) supplemented with 25 mM HEPES, 1 g/l additional glucose, 1% MEM non-essential amino acids (100×), 0.2 mM 2-mercaptoethanol, 1 mM Na-pyruvate and 15% heat inactivated horse serum was added to each well of a 96-well microtiter plate. Serial drug dilutions of eleven 3-fold dilution steps covering a range from […] were prepared. Then 4×10^3 bloodstream forms of T. b. rhodesiense STIB 900 in 50 μl was added to each well and the plate incubated at 37° C. under a 5% CO2 atmosphere for 70 h. 10 μl Alamar Blue (resazurin, 12.5 mg in 100 ml double-distilled water) was then added to each well and incubation continued for a further 2-4 h (Räz, B., M. Iten, Y. Grether-Buhler, R. Kaminsky, and R. Brun. 1997, The Alamar Blue assay to determine drug sensitivity of African trypanosomes (T.b. rhodesiense and T.b. gambiense) in vitro. Acta Trop 68:139-47). Then the plates were read with a Spectramax Gemini XS microplate fluorometer (Molecular Devices Cooperation, Sunnyvale, Calif., USA) using an excitation wave length of 536 nm and an emission wave length of 588 nm. The IC50 values were calculated by linear regression (Huber, W. Koella, J. C. 1993, A comparison of the three methods of estimating EC50 in studies of drug resistance of malaria parasites. Acta Trop. 55, 257-261) from the sigmoidal dose inhibition curves using SoftmaxPro software (Molecular Devices Cooperation, Sunnyvale, Calif., USA). Melarsoprol is used as control.
Background: Alamar Blue is a resazurin reagent that responds to reducing activity.
Consider `N#CC1(NC(=O)[C@H](Cc2cccc(Cl)c2)NC(=O)c2cnn(-c3ccc(F)cc3)n2)CC1` [Example 25, N-[(2S)-3-(3-chlorophenyl)-1-[(1-cyanocyclopropyl)amino]-1-oxopropan-2-yl]-2-(4-fluorophenyl)triazole-4-carboxamide], for which the IC50 was 1.33 µM.

For the molecule `N#CC1(NC(=O)[C@H](Cc2ccc(OC(F)(F)F)c(Cl)c2)NC(=O)c2cnn(-c3cccnc3)n2)CC1` [Example 26, N-[(2S)-3-[3-chloro-4-(trifluoromethoxy)phenyl]-1-[(1-cyanocyclopropyl)amino]-1-oxopropan-2-yl]-2-pyridin-3-yltriazole-4-carboxamide], 0.001 µM corresponded to half-maximal inhibition (IC50).

`N#CC1(NC(=O)[C@H](Cc2ccccc2)NC(=O)c2cnn(-c3ccc(F)cc3)n2)CC1` [Example 27, N-[(2S)-1-[(1-cyanocyclopropyl)amino]-1-oxo-3-phenylpropan-2-yl]-2-(4-fluorophenyl)triazole-4-carboxamide] gave an IC50 of 0.516 µM.

The molecule `N#CC1(NC(=O)[C@H](Cc2ccc(OCC3CC3)c(Cl)c2)NC(=O)c2cnn(-c3ccc(F)cc3)n2)CC1` [Example 28, N-[(2S)-3-[3-chloro-4-(cyclopropylmethoxy)phenyl]-1-[(1-cyanocyclopropyl)amino]-1-oxopropan-2-yl]-2-(4-fluorophenyl)triazole-4-carboxamide] had an IC50 of 0.19 µM. This IC50 lies about 2.7-fold lower than the previous one.

Take `N#CC1(NC(=O)[C@H](Cc2ccc(Cl)c(Cl)c2)NC(=O)c2cnn(-c3ccc(F)cc3)n2)CC1` [Example 29, N-[(2S)-1-[(1-cyanocyclopropyl)amino]-3-(3,4-dichlorophenyl)-1-oxopropan-2-yl]-2-(4-fluorophenyl)triazole-4-carboxamide]: the half-inhibitory concentration (IC50) was 0.007 µM.

Molecule `N#CC1(NC(=O)[C@H](Cc2ccc(OC(F)(F)F)c(Cl)c2)NC(=O)c2cnn(-c3ccc(F)nc3)n2)CC1` [Example 30, N-[(2S)-3-[3-chloro-4-(trifluoromethoxy)phenyl]-1-[(1-cyanocyclopropyl)amino]-1-oxopropan-2-yl]-2-(6-fluoropyridin-3-yl)triazole-4-carboxamide] yielded an IC50 of 0.005 µM.

`N#CC1(NC(=O)[C@H](Cc2ccc(OCc3ccccc3)cc2)NC(=O)c2cnn(-c3ccc(F)cc3)n2)CC1` [Example 31, N-[(2S)-1-[(1-cyanocyclopropyl)amino]-1-oxo-3-(4-phenylmethoxyphenyl)propan-2-yl]-2-(4-fluorophenyl)triazole-4-carboxamide] came in with a half-maximal inhibitory concentration (IC50) of 0.019 µM.

In turn, `CC(C)C[C@H](NC(=O)c1cnn(-c2ccc(F)cc2)n1)C(=O)NC1(C#N)CC1` [Example 32, N-[(2S)-1-[(1-cyanocyclopropyl)amino]-4-methyl-1-oxopentan-2-yl]-2-(4-fluorophenyl)triazole-4-carboxamide] registered an IC50 of 2.23 µM.

Molecule `CC(C)n1ncc(C(=O)N[C@@H](Cc2ccc(OC(F)(F)F)c(Cl)c2)C(=O)NC2(C#N)CC2)n1` [Example 33, N-[(2S)-3-[3-chloro-4-(trifluoromethoxy)phenyl]-1-[(1-cyanocyclopropyl)amino]-1-oxopropan-2-yl]-2-propan-2-yltriazole-4-carboxamide] returned a 50% inhibitory concentration (IC50) of 0.004 µM.

Molecule `Cn1ncc(C(=O)N[C@@H](Cc2ccc(OC(F)(F)F)c(Cl)c2)C(=O)NC2(C#N)CC2)n1` [Example 34, N-[(2S)-3-[3-chloro-4-(trifluoromethoxy)phenyl]-1-[(1-cyanocyclopropyl)amino]-1-oxopropan-2-yl]-2-methyltriazole-4-carboxamide] returned a half-inhibitory concentration (IC50) of 0.04 µM.

`N#CC1(NC(=O)[C@H](Cc2ccc(OC(F)(F)F)c(Cl)c2)NC(=O)c2cnn(-c3ccc(Br)cc3)n2)CC1` [Example 35, 2-(4-bromophenyl)-N-[(2S)-3-[3-chloro-4-(trifluoromethoxy)phenyl]-1-[(1-cyanocyclopropyl)amino]-1-oxopropan-2-yl]triazole-4-carboxamide] returned an IC50 of 0.028 µM.

`COCCOc1ccc(C[C@H](NC(=O)c2cnn(-c3ccc(F)cc3)n2)C(=O)NC2(C#N)CC2)cc1Cl` [Example 36, N-[(2S)-3-[3-chloro-4-(2-methoxyethoxy)phenyl]-1-[(1-cyanocyclopropyl)amino]-1-oxopropan-2-yl]-2-(4-fluorophenyl)triazole-4-carboxamide]: half-maximal inhibition (IC50) required 0.065 µM.

For the molecule `CC(C)(C)n1ncc(C(=O)N[C@@H](Cc2ccc(OC(F)(F)F)c(Cl)c2)C(=O)NC2(C#N)CC2)n1` [Example 37, 2-tert-butyl-N-[(2S)-3-[3-chloro-4-(trifluoromethoxy)phenyl]-1-[(1-cyanocyclopropyl)amino]-1-oxopropan-2-yl]triazole-4-carboxamide], the half-maximal inhibitory concentration (IC50) is 0.004 µM.

Usually IC50 stands for the point on the concentration scale where inhibition reaches its midpoint. High values mean lower potency, low ones higher potency.
